Results reported in patent US11278549B2, “Method of treating obesity” (McMaster University, priority 2013, dated 2022).
Where a name gives a salt, the structure may show the parent alone.

How the values were obtained:
UCP1 = experiment: Ucp1 promoter activity, Ucp1 mRNA and UCP1 protein in brown adipocytes; format: cell-based, mouse
Procedure: Using RNA-Seq, cultured human brown and beige adipocytes were interrogated for 5-HT receptor mRNA expression. Immortalized murine brown adipocytes (BAs) were treated with or without the selective 5-HT reuptake inhibitor (SSRI), paroxetine (250 nM). Subsequent studies were conducted with and without 5-HT2A agonists (1 pM-10 uM TCB-2, 1 pM-10 uM AL-34662, and 1 pM-10 uM NBOH-2C-CN) and 5-HT2A antagonists (100 fM-100 pM MDL-100907, 100 pM-10 uM xylamidine tosylate, 1 nM ketanserin, 10 nM altanserin, 100 fM-100 pM EMD-281,014, and 100 pM-10 uM sarpogrelate hydrochloride).
BA progenitors were isolated and immortalized from WT and serotonin transporter (SERT; Gene: Slc6a4) KO mice. These cells were then differentiated for 7 days to obtain mature BAs. BAs were then treated with different doses of 5-HT for 4 hours. RNA was isolated and quantified using RT-qPCR with probes specific for Slc6a4, Ucp1 and PPIA.
BA progenitors were isolated from mice expressing a transgene where the luciferase gene is driven by the Ucp1 promoter (i.e. Ucp1-Luc2 mice; a.k.a. ThermoMouse; Jackson Laboratories). Upon 9 days of differentiation, these BAs were treated for 4 hours with different doses of 5-HT. Because in vitro there is not a continuous supply of 5-HT as there is in vivo, cells were treated with paroxetine to inhibit the uptake and consequent degradation of 5-HT, and to observe 5-HT receptor specific effects. These cells were then lysed, incubated with a luciferin assay cocktail, and the light generated quantified on a microplate reader.

5-HT2A = target: T1, 5-HT2A (Mus musculus, UniProt P35363); experiment: Fluo-4 Ca2+ signals in brown adipocytes; format: cell-based; settings: for Ca2+ levels: brown adipocytes stained with Fluo-4, agonist treatment; for 5-HT induced Ca2+ transients: pre-treatment with antagonist
T1 construct: endogenous in cells; host or cells: immortalized murine brown adipocytes (differentiated)
Description: Immortalized BA progenitor cells obtained from 5-HT2A KO (B6; 129-5-HT2Atm1a/Nju from Nanjing Biomedical Research Institute of Nanjing University) mice were differentiated for 9 days to produce mature BAs. Cells were then stained with fluo-4 and treated with different concentrations of 5-HT to obtain a dose response curve. Values from BAs expressing 5-HT2A used for other experiments were plotted as a WT comparison.

5-HT receptor = experiment: Isoproterenol-induced lipolysis (FFA release) in immortalized BAT cells; format: cell-based, mouse; settings: co-treatment with the antagonist (3 μM), n=2
Procedure: Briefly, confluent cells were placed in induction media (0.5 mM IBMX; 0.25 mM indomethacin; 2 μg/ml dexamethasone; 1 nM T3, 20 nM insulin) for two days and subsequently maintained on differentiation media (1 nM T3, 20 nM insulin). All experiments were performed on cultures 6-8 days post-induction. Unless otherwise indicated, cells were rinsed with PBS and media was changed to HEPES-buffered Krebs Ringer buffer (HKRB)+1% BSA. Where indicated, BAs were treated with serotonin for 30 min (100 μM; Sigma) followed by isoproterenol (1 nM, Sigma) for 4 h. The serotonin receptor antagonist, methysergide (3 μM) was used 45 min prior treatment with serotonin as above.

HFD-fed C57Bl6 mice [1] = experiment: Daily LP533401 treatment of HFD-fed C57Bl6 mice (prevention of obesity); format: in vivo
Description: Animals. All experiments were approved by the McMaster University animal ethics committee and conducted under the Canadian guidelines for animal research. Tph1^−/− mice on C57BL/6 background were originally produced by gene mutation as described by Côté et al. (Proc Natl Acad Sci USA 100, 13525-13530 (2003)). Heterozygous (Tph1^+/−) mice were interbred to generate Tph1^−/− and Tph1^+/+ littermates. Starting at 8 weeks of age, male Tph1^−/− and Tph1^+/+ mice received either a chow (17% kcal fat; Diet 8640, Harlan Teklad, Madison, Wis.) or high-fat diet (HFD, 45% kcal fat, D12451, Research Diets; New Brunswick, N.J.) and water ad libitum for 12 weeks. For the initial chemical inhibitor studies, male C57BL/6 mice were purchased from Jackson's Laboratory at 6 weeks of age and immediately placed on the HFD described above. Starting at 8 weeks of age HFD-fed C57Bl6 mice received a daily intraperitoneal injection of the Tph1 inhibitor, LP533401 (25 mg/kg body weight, Dalton Pharma Services, Canada) dissolved in DMSO and diluted with water (5% DMSO final concentration) or equal volume of vehicle (5% DMSO in water). […] All mice were housed in SPF micro-isolator cages that were located in a room maintained at a constant temperature of 23° C. on a 12 h light/dark cycle with lights on at 0700.
(§1) Metabolic monitoring was performed in a Comprehensive Lab Animal Monitoring System (CLAMS, Columbus Instruments, OH, USA) as previously described (Sachithanandan, N., et al. Hepatology 52, 1632-1642 (2010); O'Neill, H. M., et al. Proc Natl Acad Sci 108, 16092-16097 (2011)). CL-316,243 challenge experiments were also performed using the CLAMS equipment, as described. All metabolic monitoring occurred in a room kept between 26 and 28° C. Insulin and glucose tolerance tests were performed after 16 weeks of the diet intervention in Tph1^−/− mice experiments, and after 6-10 weeks of HFD weeks in LP533401 injection experiments as previously described (Steinberg, G. R., et al. J Biol Chem 285, 37198-37209 (2010)). For serum insulin and cytokine measurements, fasting and fed blood samples were collected by retro-orbital bleed between weeks 16-18 using a non-heparinized capillary tube and insulin, adiponectin, leptin were measured as described (Watt, M. J., et al. Nature medicine 12, 541-548 (2006)). Serum cytokines (MCP-1, TNFα, and IL-6) were measured using a multiplexed bead-based immunoassay (BD Biosciences, San Jose, Calif., USA) following the manufacturer's instructions.
In vivo glucose uptake and body composition: ^18F-Fluorodeoxyglucose (FDG) was synthesized at McMaster University by the nucleophilic substitution method using an FDG synthesizing instrument (GE Healthcare, Milwaukee, Wis., USA) and a cyclotron (Siemans 20-30 gb). After an 8 h fast, mice were injected with insulin (0.5 U/kg) diluted in 0.9% physiological saline and 5 minutes later received an intravenous administration of FDG (10.8±1.2 MBq/g). After injection, the mice were maintained under conscious conditions and warmed using a heating pad. At 28 minutes post saline or insulin injection mice were anaesthetized with isoflorane and at 30 minutes small-animal positron emission tomography (PET, Philip Mosaic, Andover, Mass.) and micro-computed tomography (CT) (Gamma Medica-Ideas Xspect System, NorthRidge, Calif.) imaging were performed using an acquisition time of 15 min for PET, followed by CT for 5 minutes. Images were reconstructed using 3D-RAMLA algorithm, with no attenuation correction and no correction for partial-volume effects of the tomograph as previously described^31. Quantification was performed by Region-of-interest (ROI) analysis using Amide Research Workplace software and FDG-tissue uptake calculated using the mean value of standard uptake values (SUV) as described (Palanivel R, Diabetologia. 55(11):3083-93 (2012)). […]

[2] = test system: HFD-fed Ucp1+/+ and Ucp1-/- mice; experiment: LP533401 in HFD-fed Ucp1+/+ and Ucp1-/- mice at thermoneutrality; format: in vivo
Procedure: Ucp1 heterozygous mice were acquired from Jackson Laboratories and bred to produce UCP1-null (Ucp1^−/−) and wild-type (Ucp1^+/+) littermates. In order to prevent thermal stress, mice in this colony were bred and housed in a room maintained at 30° C. All testing except for the CL-316,243 challenge occurred at this temperature.
as §1
In order to establish whether the clinical benefits of Tph1 inhibition (weight loss and improvements in insulin sensitivity) are derived from increased thermogenesis mediated by UCP1, daily injections of LP533401 were performed using UCP1-null (Ucp1^−/−) and wild-type littermates (Ucp1^+/+) fed a HFD and housed under thermoneutral conditions (30° C.). […] Thus, the clinical benefits of Tph1 inhibition require UCP1 mediated thermogenesis.

HFD-fed C57Bl6 mice [3] = experiment: Metabolic cages and 18FDG-PET/CT of LP533401-treated HFD-fed mice; format: in vivo
Procedure: as §1
In vivo glucose uptake and body composition: ^18F-Fluorodeoxyglucose (FDG) was synthesized at McMaster University by the nucleophilic substitution method using an FDG synthesizing instrument (GE Healthcare, Milwaukee, Wis., USA) and a cyclotron (Siemans 20-30 gb). After an 8 h fast, mice were injected with insulin (0.5 U/kg) diluted in 0.9% physiological saline and 5 minutes later received an intravenous administration of FDG (10.8±1.2 MBq/g). After injection, the mice were maintained under conscious conditions and warmed using a heating pad. At 28 minutes post saline or insulin injection mice were anaesthetized with isoflorane and at 30 minutes small-animal positron emission tomography (PET, Philip Mosaic, Andover, Mass.) and micro-computed tomography (CT) (Gamma Medica-Ideas Xspect System, NorthRidge, Calif.) imaging were performed using an acquisition time of 15 min for PET, followed by CT for 5 minutes. Images were reconstructed using 3D-RAMLA algorithm, with no attenuation correction and no correction for partial-volume effects of the tomograph as previously described^31. Quantification was performed by Region-of-interest (ROI) analysis using Amide Research Workplace software and FDG-tissue uptake calculated using the mean value of standard uptake values (SUV) as described (Palanivel R, Diabetologia. 55(11):3083-93 (2012)). Analysis of total body fat composition were determined by using Amira software (Visage Imaging) and the mean value of voxels of segmented adipose were calculated and expressed relative to total body mass.
To examine the mechanisms contributing to weight loss in LP533401-treated mice, HFD-fed mice were placed in metabolic cages after 12 days of treatment before any change in body mass was evident in groups (Vehicle: 29.4±0.58 g vs. LP533401:28.9±0.63 g).

[4] = HFD-fed C57Bl6 mice, Tph1 inhibitor 25 mg/kg daily i.p., values ± SEM, n = 7-8

T1 sequence (P35363 whole entry): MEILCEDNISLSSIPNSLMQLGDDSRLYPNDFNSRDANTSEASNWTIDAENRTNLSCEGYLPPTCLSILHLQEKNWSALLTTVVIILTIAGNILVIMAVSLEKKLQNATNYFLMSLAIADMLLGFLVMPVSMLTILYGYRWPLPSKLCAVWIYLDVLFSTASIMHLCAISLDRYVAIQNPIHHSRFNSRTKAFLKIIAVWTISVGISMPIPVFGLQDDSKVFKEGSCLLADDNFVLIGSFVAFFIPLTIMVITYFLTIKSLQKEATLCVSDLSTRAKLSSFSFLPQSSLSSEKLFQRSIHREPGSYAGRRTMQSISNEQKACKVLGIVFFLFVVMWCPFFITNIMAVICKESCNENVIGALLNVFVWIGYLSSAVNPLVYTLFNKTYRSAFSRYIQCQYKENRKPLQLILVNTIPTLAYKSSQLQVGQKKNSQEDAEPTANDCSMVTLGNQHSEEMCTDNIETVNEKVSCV

## COc1cc(CCNCc2ccccc2O)c(OC)cc1C#N [NBOH-2C-CN]
UCP1; brown adipocytes
  Ucp1 mRNA: inhibited
UCP1; brown adipocytes, chronic treatment for NBOH-2C-CN
  UCP1 protein levels: decreased
5-HT2A
  Ca2+ levels: increased

## COc1cccc(CCc2ccccc2OCC(CN(C)C)OC(=O)CCC(=O)O)c1 (centres unmarked) [Sarpogrelate hydrochloride]
5-HT2A
  5-HT induced Ca2+ transients: attenuated

## COc1cc(Br)c(OC)c2c1[C@H](CN)C2 [TCB-2]
5-HT2A
  Ca2+ levels: increased

## CC[C@@H](CO)NC(=O)[C@@H]1C=C2c3cccc4c3c(cn4C)C[C@H]2N(C)C1 [methysergide]
5-HT receptor
  effect of serotonin on isoproterenol-induced lipolysis: blocked

## C[C@H](N)Cn1ncc2ccc(O)cc21 [AL-34662]
5-HT2A
  Ca2+ levels: increased

## Fc1ccc([C@@H]2CCNC[C@H]2COc2ccc3c(c2)OCO3)cc1 [paroxetine]
UCP1; serotonin transporter inhibited with the SSRI
  sensitivity of brown adipocytes to inhibition by 5-HT: greater sensitivity

## COc1cccc([C@H](O)C2CCN(CCc3ccc(F)cc3)CC2)c1OC [MDL-100907, volinanserin]
UCP1; antagonist plus 5-HT
  5-HT induced decrease in UCP1 protein levels: dose-dependently attenuated
5-HT2A
  5-HT induced Ca2+ transients: attenuated

## Nc1nc(OC(c2ccc(-c3cccc(F)c3)cc2)C(F)(F)F)cc(-c2ccc(C[C@H](N)C(=O)O)cc2)n1 (stereo partly drawn) [LP533401, (2S)-2-amino-3-(4-(2-amino-6-(2,2,2-trifluoro-1-(3′-fluoro-[1,1′-biphenyl]-4-yl)ethoxy)pyrimidin-4-yl)phenyl)propanoic acid]
HFD-fed C57Bl6 mice [1]; 25 mg/kg i.p., versus vehicle
  accumulation of body fat: lower accumulation
  circulating serotonin levels: reduced
  glucose homeostasis: improvements
  insulin sensitivity: increased
  liver size: reductions
HFD-fed C57Bl6 mice [1]; 25 mg/kg i.p., versus vehicle (1-2 grams per week)
  weight gain: suppressed
HFD-fed C57Bl6 mice [1]; [4]
  Tissue weight, Brown Adipose Tissue: 153 ± 8.4 mg
  Tissue weight, Epididymal Fat Pad: 1157 ± 121 mg
  Tissue weight, Inguinal Fat Pad: 117 ± 16 mg
  Tissue weight, Retroperitoneal Fat Pad: 265 ± 29.9 mg
[2]; Ucp1+/+ mice, HFD, 30° C.
  weight gain: attenuated weight gain
[2]; Ucp1+/+ versus Ucp1-/- mice
  improvements in glucose tolerance: entirely dependent on the expression of UCP1
[2]; challenged with CL-316,243, only Ucp1+/+ mice
  oxygen uptake and thermogenesis: increase
HFD-fed C57Bl6 mice [3]; 18FDG-PET/CT
  FDG uptake in BAT: increased
HFD-fed C57Bl6 mice [3]; PET, HFD-fed C57Bl6 mice
  FDG uptake into eWAT: increased
HFD-fed C57Bl6 mice [3]; after 12 days of treatment, before any change in body mass
  body mass: 28.9 ± 0.63 g
HFD-fed C57Bl6 mice [3]; dark and light cycles, after 12 days of treatment
  oxygen consumption: increased
HFD-fed C57Bl6 mice [3]; macroscopically evident, with marked UCP1 immunostaining
  browning of eWAT: Increased
HFD-fed C57Bl6 mice [3]; metabolic cages, P>0.05 vs vehicle, n=8
  food intake: 13.7 ± 0.45 g
HFD-fed C57Bl6 mice [3]; metabolic cages, after 12 days of treatment
  activity levels: without altering
HFD-fed C57Bl6 mice [3]; mouse, in vivo
  expression of UCP1 in BAT: enhanced

## N#Cc1c[nH]c2c(C(=O)N3CCN(CCc4ccc(F)cc4)CC3)cccc12 [EMD-281,014, pruvanserin]
5-HT2A
  5-HT induced Ca2+ transients: attenuated
